# US20220031800A1, “PEPTIDES FOR TREATING NON-EXUDATIVE MACULAR DEGENERATION AND OTHER DISORDERS OF THE EYE” (Allegro Pharmaceuticals, LLC, priority 2019, published 2022)
# Square brackets hold non-standard residues; d marks the D form. Peptide text beside a SMILES is read from it. Cya = N[C@@H](CS(=O)(=O)O)C(=O)O
# Tested on: study eye of subjects with intermediate non-exudative AMD
# Experiment: SD-OCT Analysis 1 (thickness and volume of retinal layers, EZ defect area, GA)
# Type: in vivo, human
# Conditions: baseline to Week 32
# Method: Numerous study assessments were conducted at various time points throughout the study. Included among these study assessments were; refractive eye examinations, determinations of BCVA AND low-luminance BCVA, Lanthony D-15 color vision test, measurement of intraocular pressure (IOP), Indirect ophthalmoscopy/dilated fundus examinations and spectral-domain optical coherence tomography (SD-OCT). Also, blood and saliva samples were obtained from each subject for genetic analysis. The above-listed study assessments were performed at the time points indicated in Table 1, below: The OCT scans were analyzed by two (2) unrelated experts. The mean thickness and mean volume of retinal subfields and layer segments were analyzed at screening (pre-treatment) and at Week 12 for Group 1 subjects and at Week 32 for Group 2 subjects. In addition to the quantitative analysis of OCT images, a qualitative assessment of the OCT images at baseline (pre-treatment) was performed to identify GA anywhere in the retina, in the fovea (1-mm central subfield), and in the foveal center. Quantitative analysis of the OCT images was also performed to measure changes in anatomical measurements over time.
smiles,measurement,setting,value
"C[C@@H](O)[C@H](NC(=O)[C@H](CS(=O)(=O)O)NC(=O)CNC(=O)[C@H](CCCNC(=N)N)NC(=O)CN)C(=O)N1CCC[C@H]1C(=O)O [risuteganib, Glycyl-L-arginylglycyl-3-sulfo-L-alanyl-L-threonyl-L-proline] (H-GRG[Cya]TP-OH)",Change in EZ defect area,nonresponder eyes n = 12,0.014 mm^2
same,"Mean change in mean thickness: Inner retina, central subfield",nonresponder eyes n = 12,−2.250 μm
same,"Mean change in mean thickness: Inner retina, foveal center",nonresponder eyes n = 12,9.917 μm
same,"Mean change in mean thickness: Outer retina, central subfield",nonresponder eyes n = 12,−5.417 μm
same,"Mean change in mean thickness: Outer retina, foveal center",nonresponder eyes n = 12,−17.833 μm
same,"Mean change in mean thickness: Photoreceptor, central subfield",nonresponder eyes n = 12,−1.333 μm
same,"Mean change in mean thickness: Photoreceptor, foveal center",nonresponder eyes n = 12,3.833 μm
same,"Mean change in mean thickness: RPEDC, central subfield",nonresponder eyes n = 12,1.083 μm
same,"Mean change in mean thickness: RPEDC, foveal center",nonresponder eyes n = 12,−2.250 μm
same,"Mean change in total volume: Inner retina, central subfield",nonresponder eyes n = 12,−0.002 mm^3
same,"Mean change in total volume: Outer retina, central subfield",nonresponder eyes n = 12,−0.004 mm^3
same,"Mean change in total volume: Photoreceptor, central subfield",nonresponder eyes n = 12,−0.001 mm^3
same,"Mean change in total volume: RPEDC, central subfield",nonresponder eyes n = 12,0.001 mm^3
same,Change in EZ defect area,responder eyes n = 10,0.020 mm^2
same,"Mean change in mean thickness: Inner retina, central subfield",responder eyes n = 10,5.200 μm
same,"Mean change in mean thickness: Inner retina, foveal center",responder eyes n = 10,8.400 μm
same,"Mean change in mean thickness: Outer retina, central subfield",responder eyes n = 10,−2.400 μm
same,"Mean change in mean thickness: Outer retina, foveal center",responder eyes n = 10,−8.000 μm
same,"Mean change in mean thickness: Photoreceptor, central subfield",responder eyes n = 10,−1.000 μm
same,"Mean change in mean thickness: Photoreceptor, foveal center",responder eyes n = 10,3.100 μm
same,"Mean change in mean thickness: RPEDC, central subfield",responder eyes n = 10,−9.800 μm
same,"Mean change in mean thickness: RPEDC, foveal center",responder eyes n = 10,−8.100 μm
same,"Mean change in total volume: Inner retina, central subfield",responder eyes n = 10,0.004 mm^3
same,"Mean change in total volume: Outer retina, central subfield",responder eyes n = 10,−0.002 mm^3
same,"Mean change in total volume: Photoreceptor, central subfield",responder eyes n = 10,−0.001 mm^3
same,"Mean change in total volume: RPEDC, central subfield",responder eyes n = 10,−0.008 mm^3
same,"Change in EZ defect area, Difference",responder vs nonresponder eyes,0.006 mm^2
same,"Mean change in mean thickness: Inner retina, central subfield, Difference",responder vs nonresponder eyes,7.450 μm
same,"Mean change in mean thickness: Inner retina, foveal center, Difference",responder vs nonresponder eyes,−1.517 μm
same,"Mean change in mean thickness: Outer retina, central subfield, Difference",responder vs nonresponder eyes,3.017 μm
same,"Mean change in mean thickness: Outer retina, foveal center, Difference",responder vs nonresponder eyes,9.833 μm
same,"Mean change in mean thickness: Photoreceptor, central subfield, Difference",responder vs nonresponder eyes,0.333 μm
same,"Mean change in mean thickness: Photoreceptor, foveal center, Difference",responder vs nonresponder eyes,−0.733 μm
same,"Mean change in mean thickness: RPEDC, central subfield, Difference",responder vs nonresponder eyes,−10.883 μm
same,"Mean change in mean thickness: RPEDC, foveal center, Difference",responder vs nonresponder eyes,−5.850 μm
same,"Mean change in total volume: Inner retina, central subfield, Difference",responder vs nonresponder eyes,0.006 mm^3
same,"Mean change in total volume: Outer retina, central subfield, Difference",responder vs nonresponder eyes,0.003 mm^3
same,"Mean change in total volume: Photoreceptor, central subfield, Difference",responder vs nonresponder eyes,0.000 mm^3
same,"Mean change in total volume: RPEDC, central subfield, Difference",responder vs nonresponder eyes,−0.009 mm^3
same,Change in EZ defect area,risuteganib arm n = 22,0.015 mm^2
same,"Mean change in mean thickness: Inner retina, central subfield",risuteganib arm n = 22,1.565 μm
same,"Mean change in mean thickness: Inner retina, foveal center",risuteganib arm n = 22,6.696 μm
same,"Mean change in mean thickness: Inner retina, inferior subfield",risuteganib arm n = 22,−0.065 μm
same,"Mean change in mean thickness: Inner retina, nasal subfield",risuteganib arm n = 22,−0.783 μm
same,"Mean change in mean thickness: Inner retina, superior subfield",risuteganib arm n = 22,−3.022 μm
same,"Mean change in mean thickness: Inner retina, temporal subfield",risuteganib arm n = 22,0.217 μm
same,"Mean change in mean thickness: Outer retina, central subfield",risuteganib arm n = 22,−3.978 μm
same,"Mean change in mean thickness: Outer retina, foveal center",risuteganib arm n = 22,−9.543 μm
same,"Mean change in mean thickness: Outer retina, inferior subfield",risuteganib arm n = 22,−2.457 μm
same,"Mean change in mean thickness: Outer retina, nasal subfield",risuteganib arm n = 22,−1.196 μm
same,"Mean change in mean thickness: Outer retina, superior subfield",risuteganib arm n = 22,−0.065 μm
same,"Mean change in mean thickness: Outer retina, temporal subfield",risuteganib arm n = 22,−2.283 μm
same,"Mean change in mean thickness: Photoreceptor, central subfield",risuteganib arm n = 22,−1.087 μm
same,"Mean change in mean thickness: Photoreceptor, foveal center",risuteganib arm n = 22,1.717 μm
same,"Mean change in mean thickness: Photoreceptor, inferior subfield",risuteganib arm n = 22,−0.239 μm
same,"Mean change in mean thickness: Photoreceptor, nasal subfield",risuteganib arm n = 22,−0.087 μm
same,"Mean change in mean thickness: Photoreceptor, superior subfield",risuteganib arm n = 22,0.130 μm
same,"Mean change in mean thickness: Photoreceptor, temporal subfield",risuteganib arm n = 22,−0.152 μm
same,"Mean change in mean thickness: RPEDC, central subfield",risuteganib arm n = 22,−1.500 μm
same,"Mean change in mean thickness: RPEDC, foveal center",risuteganib arm n = 22,−1.652 μm
same,"Mean change in mean thickness: RPEDC, inferior subfield",risuteganib arm n = 22,0.457 μm
same,"Mean change in mean thickness: RPEDC, nasal subfield",risuteganib arm n = 22,0.739 μm
same,"Mean change in mean thickness: RPEDC, superior subfield",risuteganib arm n = 22,1.739 μm
same,"Mean change in mean thickness: RPEDC, temporal subfield",risuteganib arm n = 22,0.870 μm
same,"Mean change in total volume: Inner retina, central subfield",risuteganib arm n = 22,0.001 mm^3
